In patent EP3131902B1, “COMPOUNDS AS MODULATORS OF ROR GAMMA” (Boehringer Ingelheim International GmbH, priority 2014, dated 2015):
Where two headings read alike, the source gives them in different places.

Target: T1, RORγ (Homo sapiens, UniProt P51449)
T1 construct: expressed in transfected cells; host or cells: HEK 293 cells, transiently transfected
T1 sequence (P51449 269-508 limits assumed): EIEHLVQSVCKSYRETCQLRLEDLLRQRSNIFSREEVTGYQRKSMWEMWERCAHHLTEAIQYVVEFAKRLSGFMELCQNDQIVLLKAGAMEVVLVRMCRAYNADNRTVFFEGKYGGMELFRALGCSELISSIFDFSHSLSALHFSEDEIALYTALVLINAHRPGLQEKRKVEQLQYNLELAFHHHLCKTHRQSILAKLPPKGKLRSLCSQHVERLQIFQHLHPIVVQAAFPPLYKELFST
Experiment: Reporter Gene Assay (RGA): nuclear receptor transactivation assay, inhibition of RORγ transactivation of a luciferase reporter in transiently transfected HEK 293 cells
Assay type: cell-based

Row | Compound | IC50 (read-out: RGA IC50) | IC50
1 | CCS(=O)(=O)c1ccc(CNc2nc3cnc(-c4c(OC)ncnc4C4CC4)nc3n([C@H]3C[C@@H]3C(F)(F)F)c2=O)nc1 (stereo in doubt) [Example 110] | 1.35 µM | –
2 | CCc1ncnc(C2CC2)c1-c1ncc2nc(NCc3ccc(S(=O)(=O)CC)cn3)c(=O)n(C3CCCC3)c2n1 [Example 3] | 0.23 µM | –
3 | CC[C@H](C)n1c(=O)c(NCc2ccc(S(=O)(=O)CC)cn2)nc2cnc(-c3c(C)ncnc3C3CC3)nc21 [Example 20] | 0.33 µM | –
4 | CCS(=O)(=O)c1ccc(CNc2nc3cnc(-c4c(C5CC5)ncnc4C4CC4)nc3n(C3CC3)c2=O)cc1 [Example 38] | – | 1.1 µM
5 | CCS(=O)(=O)c1ccc(CNc2nc3cnc(-c4c(C)ncnc4C4CC4)nc3n(-c3ccccc3)c2=O)nc1 [Example 48] | 3.8 µM | –
6 | CC[C@H](C)n1c(=O)c(NCc2ccc(S(=O)(=O)CC)cn2)nc2cnc(-c3c(C)ncnc3C(F)(F)F)nc21 [Example 58] | 0.42 µM | –
7 | CCS(=O)(=O)c1ccc(CNc2nc3cnc(-c4c(C)ncnc4C4CC4)nc3n([C@@H](C)C(C)C)c2=O)nc1 [Example 66] | 0.41 µM | –
8 | CCS(=O)(=O)c1ccc(CNc2nc3cnc(-c4c(C)ncnc4C4CC4)nc3n([C@H](C)C(C)C)c2=O)nc1 [Example 67] | 0.37 µM | –
9 | CC[C@@H](C)n1c(=O)c(NCc2ccc(S(=O)(=O)CC)cn2)nc2cnc(-c3c(C)ncnc3C3CC3)nc21 [Example 84] | 0.4 µM | –
10 | CC[C@H](C)n1c(=O)c(NCc2ccc(S(N)(=O)=O)cn2)nc2cnc(-c3c(C)ncnc3C3CC3)nc21 [Example 98] | 0.195 µM | –
11 | CCS(=O)(=O)c1ccc(CNc2nc3cnc(-c4c(C)ncnc4C4CC4)nc3n(CC(C)(C)F)c2=O)nc1 [Example 105] | 1.6 µM | –
12 | CCS(=O)(=O)c1ccc(CNc2nc3cnc(-c4c(OC)ncnc4C4CC4)nc3n(CC(C)(C)F)c2=O)nc1 [Example 106] | – | 1.15 µM
13 | CCS(=O)(=O)c1ccc(CNc2nc3cnc(-c4c(C)ncnc4C4CC4)nc3n([C@H]3CCC[C@H]3C#N)c2=O)nc1 [Example 111] | 0.46 µM | –
14 | CCS(=O)(=O)c1ccc(CNc2nc3cnc(-c4c(C)ncnc4C4CC4)nc3n([C@H]3CCC[C@@H]3C#N)c2=O)nc1 [Example 112] | 0.92 µM | –
15 | CCS(=O)(=O)c1ccc(CNc2nc3cnc(-c4c(C)ncnc4C4CC4)nc3n(C3CCCC3=O)c2=O)nc1 (stereo not drawn) [Example 119] | 0.72 µM | –
16 | CC[C@H](C)n1c(=O)c(NCc2ccc(S(N)(=O)=O)cn2)nc2cnc(-c3c(OC)ncnc3C3CC3)nc21 [Example 122] | – | 0.15 µM
17 | CC[C@@H](C)n1c(=O)c(NCc2ccc(S(N)(=O)=O)cn2)nc2cnc(-c3c(C)nc(N)nc3C3CC3)nc21 [Example 129] | 2.5 µM | –
18 | CCS(=O)(=O)c1ccc(CNc2nc3cnc(-c4cnc(N)nc4C(C)C)nc3n(C(C)C)c2=O)nc1 [Example 140] | 0.73 µM | –
19 | CCS(=O)(=O)N1C[C@@H]2C(CNc3nc4cnc(-c5c(C)ncnc5C5CC5)nc4n([C@@H](C)C4CC4)c3=O)[C@@H]2C1 (stereo partly drawn) [Example 163] | – | 0.16 µM
20 | CC(=O)N1CCC(CNc2nc3cnc(-c4c(C)ncnc4C4CC4)nc3n([C@@H](C)C3CC3)c2=O)CC1 [Example 166] | 1.6 µM | –
21 | Cc1ncnc(C2CC2)c1-c1ncc2nc(NCc3ccc(S(=O)(=O)CC#N)cc3)c(=O)n(C(C)C)c2n1 [Example 171] | 0.2 µM | –
22 | CCCc1ncnc(C)c1-c1ncc2nc(NCc3ccc(S(=O)(=O)CC)cn3)c(=O)n(C(C)C)c2n1 [Example 172] | 0.44 µM | –
23 | CCS(=O)(=O)c1ccc(CNc2nc3cnc(-c4c(C5CC5)ncnc4C4CC4)nc3n([C@H]3CCOC3)c2=O)cc1 [Example 174] | 0.275 µM | –
24 | CCc1ncnc(C2CC2)c1-c1ncc2nc(NCc3ccc(S(=O)(=O)CC)cc3)c(=O)n([C@H]3CCOC3)c2n1 [Example 175] | 0.38 µM | –
25 | CCS(=O)(=O)c1ccc(CNc2nc3cnc(-c4c(C)ncnc4C4CC4)nc3n([C@@H](C)C(F)(F)F)c2=O)cc1 [Example 177] | – | 0.073 µM
26 | CCS(=O)(=O)c1ccc(CNc2nc3cnc(-c4c(C)ncnc4C(C)C)nc3n(C(C)C)c2=O)nc1 [Example 178] | 0.24 µM | –
27 | CCS(=O)(=O)c1cnc(CNc2nc3cnc(-c4c(C)ncnc4C4CC4)nc3n([C@@H](C)C(F)(F)F)c2=O)nc1 [Example 188] | 0.315 µM | –

Second part, led by results:

Row | IC50 (read-out: RGA IC50) | Compound | IC50
28 | 0.28 µM | CCS(=O)(=O)c1ccc(CNc2nc3cnc(-c4c(C5CC5)ncnc4C4CC4)nc3n([C@@H](C)C(C)C)c2=O)nc1 [Example 7] | –
29 | 0.3 µM | CCS(=O)(=O)c1ccc(CNc2nc3cnc(-c4c(C5CC5)ncnc4C4CC4)nc3n(C3CCCC3)c2=O)nc1 [Example 13] | –
30 | 0.31 µM | CCC(C)n1c(=O)c(NCc2ccc(S(C)(=O)=O)cc2)nc2cnc(-c3c(C)ncnc3C3CC3)nc21 (stereo not drawn) [Example 14] | –
31 | 0.32 µM | CCC(CC)n1c(=O)c(NCc2ccc(S(=O)(=O)CC)cn2)nc2cnc(-c3c(C4CC4)ncnc3C3CC3)nc21 [Example 16] | –
32 | 0.41 µM | CCS(=O)(=O)c1ccc(CNc2nc3cnc(-c4c(C5CC5)ncnc4C4CC4)nc3n([C@H](C)C(C)C)c2=O)nc1 [Example 25] | –
33 | 0.42 µM | CCC(C)n1c(=O)c(NCc2ccc(S(C)(=O)=O)cc2)nc2cnc(-c3c(OC)ncnc3C3CC3)nc21 (stereo not drawn) [Example 26] | –
34 | 0.88 µM | CCS(=O)(=O)c1ccc(CNc2nc3cnc(-c4c(OC)ncnc4C4CC4)nc3n(C3(C)CC3(F)F)c2=O)nc1 (stereo not drawn) [Example 36] | –
35 | 2.6 µM | CCS(=O)(=O)c1ccc(CNc2nc3cnc(-c4c(OC)ncnc4C4CC4)nc3n(C3CC3)c2=O)cc1 [Example 43] | –
36 | 3 µM | CS(=O)(=O)c1ccc(CNc2nc3cnc(-c4c(C5CC5)ncnc4C4CC4)nc3n(C3CC3)c2=O)cc1 [Example 46] | –
37 | 4.4 µM | CCS(=O)(=O)c1ccc(CNc2nc3cnc(-c4c(OC)ncnc4C4CC4)nc3n(C3(C#N)CC3)c2=O)nc1 [Example 50] | –
38 | 7.6 µM | CCS(=O)(=O)c1ccc(CNc2nc3cnc(-c4c(C5CC5)ncnc4C4CC4)nc3n(C3CC3)c2=O)cn1 [Example 51] | –
39 | 0.29 µM | CCS(=O)(=O)c1ccc(CNc2nc3cnc(-c4c(C5CC5)ncnc4C4CC4)nc3n([C@@H](C)C3CC3)c2=O)nc1 [Example 73] | –
40 | 1.6 µM | CCS(=O)(=O)N1CCC(CNc2nc3cnc(-c4c(OC)ncnc4C4CC4)nc3n([C@H](C)C3CC3)c2=O)CC1 [Example 76] | –
41 | 0.3 µM | CCS(=O)(=O)c1ccc(CNc2nc3cnc(-c4c(OC)ncnc4C4CC4)nc3n([C@H]3CCC[C@H]3C#N)c2=O)nc1 [Example 108] | –
42 | 0.79 µM | CCS(=O)(=O)c1ccc(CNc2nc3cnc(-c4c(OC)ncnc4C4CC4)nc3n([C@H]3CCC[C@@H]3C#N)c2=O)nc1 [Example 109] | –
43 | 0.107 µM | CCS(=O)(=O)c1sc(CNc2nc3cnc(-c4c(C)ncnc4C4CC4)nc3n([C@@H](C)C3CC3)c2=O)nc1C [Example 114] | –
44 | 0.3 µM | COc1ncnc(C2CC2)c1-c1ncc2nc(NCc3ccc(S(N)(=O)=O)cn3)c(=O)n(CC3CCC3)c2n1 [Example 116] | –
45 | 0.42 µM | CCS(=O)(=O)c1ccc(CNc2nc3cnc(-c4c(OC)ncnc4C4CC4)nc3n(C3CCCC3=O)c2=O)nc1 (stereo not drawn) [Example 120] | –

Row | IC50 (read-out: RGA IC50) | Compound | IC50
46 | 0.285 µM | CCS(=O)(=O)N1CCC(CNc2nc3cnc(-c4c(C)ncnc4C4CC4)nc3n(C(C)C)c2=O)CC1 [Example 130] | –
47 | 0.205 µM | CCS(=O)(=O)N1CCC(CNc2nc3cnc(-c4c(OC)ncnc4C4CC4)nc3n(C(C)C)c2=O)CC1 [Example 131] | –
48 | 1.03 µM | COc1cc(C#N)ccc1CNc1nc2cnc(-c3c(C)ncnc3C3CC3)nc2n([C@@H](C)C2CC2)c1=O [Example 133] | –
49 | 0.24 µM | CNS(=O)(=O)c1ccc(CNc2nc3cnc(-c4c(C)ncnc4C4CC4)nc3n([C@@H](C)C3CC3)c2=O)cc1 [Example 135] | –
50 | 0.305 µM | COc1ncnc(C2CC2)c1-c1ncc2nc(NCc3ccc(S(C)(=O)=O)cn3)c(=O)n(C(C)C)c2n1 [Example 149] | –
51 | 0.255 µM | COc1ncnc(C2CC2)c1-c1ncc2nc(NCc3ccc(S(N)(=O)=O)cc3)c(=O)n(C(C)C)c2n1 [Example 151] | –
52 | 0.47 µM | CCS(=O)(=O)N1CC2(CC(CNc3nc4cnc(-c5c(OC)ncnc5C5CC5)nc4n([C@@H](C)C4CC4)c3=O)C2)C1 [Example 152] | –
53 | 0.295 µM | CCS(=O)(=O)c1ccc(CNc2nc3cnc(-c4c(OC)ncnc4C4CC4)nc3n(CC(C)C)c2=O)cn1 [Example 154] | –
54 | 0.185 µM | CNS(=O)(=O)c1ccc(CNc2nc3cnc(-c4c(OC)ncnc4C4CC4)nc3n(C(C)C)c2=O)nc1 [Example 155] | –
55 | 0.285 µM | Cc1ncnc(C2CC2)c1-c1ncc2nc(NCc3ccc(S(C)(=N)=O)cc3)c(=O)n([C@@H](C)C3CC3)c2n1 (stereo partly drawn) [Example 160] | –
56 | 0.157 µM | Cc1ncnc(C2CC2)c1-c1ncc2nc(NCC3CCN(S(=O)(=O)CC#N)CC3)c(=O)n([C@@H](C)C3CC3)c2n1 [Example 165] | –
57 | 0.145 µM | COCCS(=O)(=O)N1CCC(CNc2nc3cnc(-c4c(OC)ncnc4C4CC4)nc3n([C@@H](C)C3CC3)c2=O)CC1 [Example 169] | –
58 | 0.175 µM | COc1ncnc(C2CC2)c1-c1ncc2nc(NCc3ccc(S(C)(=O)=O)cn3)c(=O)n([C@@H](C)C(F)(F)F)c2n1 [Example 181] | –
59 | 0.295 µM | CC[C@@H](C)n1c(=O)c(NCc2ncc(S(=O)(=O)CC)cn2)nc2cnc(-c3c(OC)ncnc3C3CC3)nc21 [Example 184] | –
60 | 0.15 µM | CC[C@@H](C)n1c(=O)c(NCc2ncc(S(=O)(=O)CC)cn2)nc2cnc(-c3c(C4CC4)ncnc3C3CC3)nc21 [Example 186] | –
61 | 0.255 µM | CCS(=O)(=O)c1cnc(CNc2nc3cnc(-c4c(OC)ncnc4C4CC4)nc3n([C@@H](C)C(F)(F)F)c2=O)nc1 [Example 187] | –
62 | 0.12 µM | CC[C@@H](C)n1c(=O)c(NCc2ccc(S(C)(=O)=O)cc2)nc2cnc(-c3c(C)ncnc3C3CC3)nc21 [Example 189] | –
63 | 0.13 µM | CC[C@@H](C)n1c(=O)c(NCc2ccc(S(C)(=O)=O)cc2)nc2cnc(-c3c(OC)ncnc3C3CC3)nc21 [Example 190] | –
